Article PMC10336134, “Effects of dialkoxybenzenes against Varroa destructor and identification of 1-allyloxy-4-propoxybenzene as a promising acaricide candidate” (Scientific Reports, 2023)

Assays:
[1] = biological target: T1, Human expressed AChE (hAChE) (Homo sapiens, UniProt P22303); test: Ellman assay, Michaelis-Menten kinetics with inhibitor; type: biochemical; conditions: acetylthiocholine; 0.5-3 mM compound; pH 7.6; competitive
T1 construct: recombinant, commercial lyophilized powder (Sigma C1682)

[2] = test system: T2, Varroa destructor AChE (VdAChE); test: Ellman assay, […] nm; type: biochemical; conditions: no test compound; sodium phosphate pH 7.6, DTNB, ethanol/Tween 20; mite extract; read-out: KM (× 10^-5 M)
T2 construct: native extract from pre-frozen mites

Honey bee AChE (AmAChE) = test system: T3, Honey bee AChE (AmAChE); test: Ellman assay; type: biochemical, Apis mellifera; conditions: no test compound; sodium phosphate pH 7.6, DTNB, ethanol/Tween 20; bee isolate; read-out: KM (× 10^-5 M)
T3 construct: gene AmAChE1; native isolate from nurse bees
Description: Ellman assay on Honey bee AChE (AmAChE)

purified protein = substrate: CC(=O)SCC[N+](C)(C)C; test: purified protein; type: biochemical, Homo sapiens; conditions: no test compound, sodium phosphate pH 7.6, DTNB, ethanol/Tween 20

## CCN(CC)C(=O)c1cccc(C)c1 [DEET]
[1]
  Ellman assay, Michaelis-Menten kinetics with inhibitor: all three forms of the enzyme, hAChE, AmAChE and VdAChE, were competitively inhibited by DEET

## CC(=O)SCC[N+](C)(C)C [acetylthiocholine iodide]
[2]
  Km: 14 µM
Honey bee AChE (AmAChE)
  Km: 22 µM

B1: Human expressed AChE (hAChE) (Homo sapiens) (protein)
chain: EGREDAELLVTVRGGRLRGIRLKTPGGPVSAFLGIPFAEPPMGPRRFLPPEPKQPWSGVVDATTFQSVCYQYVDTLYPGFEGTEMWNPNRELSEDCLYLNVWTPYPRPTSPTPVLVWIYGGGFYSGASSLDVYDGRFLVQAERTVLVSMNYRVGAFGFLALPGSREAPGNVGLLDQRLALQWVQENVAAFGGDPTSVTLFGESAGAASVGMHLLSPPSRGLFHRAVLQSGAPNGPWATVGMGEARRRATQLAHLVGCPPGGTGGNDTELVACLRTRPAQVLVNHEWHVLPQESVFRFSFVPVVDGDFLSDTPEALINAGDFHGLQVLVGVVKDEGSYFLVYGAPGFSKDNESLISRAEFLAGVRVGVPQVSDLAAEAVVLHYTDWLHPEDPARLREALSDVVGDHNVVCPVAQLAGRLAAQGARVYAYVFEHRASTLSWPLWMGVPHGYEIEFIFGIPLDPSRNYTAEEKIFAQRLMRYWANFARTGDPNEPRDPKAPQWPPYTAGAQQYVSLDLRPLEVRRGLRAQACAFWNRFLPKLLSATDTLDEAERQWKAEFHRWSSYMVHWKNQFDHYSKQDRCSDL
notes: recombinant, commercial lyophilized powder (Sigma C1682)
Purified protein
  Km: (1.0 ± 0.2) × 10^-4 M
  Vmax: 51 µM/min
